The subject of one series is A-549. Put plainly: Inhibition of cells growth by colorimetric assay (SRB), A-549. Format: cell-based. The procedure:
(§1) 2°.—Inhibition of Cells Growth by Colorimetric Assay.
(§2) A colorimetric type of assay, using sulforhodamine B (SRB) reaction has been adapted for a quantitative measurement of cell growth and viability [following the technique described by Philip Skehan, et al. (1990), New colorimetric cytotoxicity assay for anticancer drug screening, J. Natl. Cancer Inst., 82:1107-1112]
(§3) This form of the assay employs 96 well cell culture microplates of 9 mm diameter (Faircloth, 1988; Mosmann, 1983). Most of the cell lines are obtained from American Type Culture Collection (ATCC) derived from different human cancer types.
(§4) Cells are maintained in RPMI 1640 10% FBS, supplemented with 0.1 g/l penicillin and 0.1 g/l streptomycin sulfate and then incubated at 37° C., 5% CO2 and 98% humidity. For the experiments, cells were harvested from subconfluent cultures using trypsin and resuspended in fresh medium before plating.
(§5) Cells are seeded in 96 well microtiter plates, at 5×10^3 cells per well in aliquots of 195 μl medium, and they are allowed to attach to the plate surface by growing in drug free medium for 18 hours. Afterward, samples are added in aliquots of 5 μl in a ranging from 10 to 10^−8 μg/ml, dissolved in DMSO/EtOH/PBS (0.5:0.5:99). After 48 hours exposure, the antitumor effect are measured by the SRB methodology: cells are fixed by adding 50 μl of cold 50% (wt/vol) trichloroacetic acid (TCA) and incubating for 60 minutes at 4° C. Plates are washed with deionized water and dried. One hundred μl of SRB solution (0.4% wt/vol in 1% acetic acid) is added to each microtiter well and incubated for 10 minutes at room temperature. Unbound SRB is removed by washing with 1% acetic acid. Plates are air dried and bound stain is solubilized with Tris buffer. Optical densities are read on a automated spectrophotometric plate reader at a single wavelength of 490 nm.
(§6) The values for mean+/−SD of data from triplicate wells are calculated. Some parameters for cellular responses can be calculated: GI=growth inhibition, TGI=total growth inhibition (cytostatic effect) and LC=cell killing (cytotoxic effect).
(§7) Obtained results may predict the usefulness of a certain drug as a potential cancer treatment. For this technique, compounds which show GI50 values smaller than 10 μg/ml are selected to continue with further studies. GI50's data allow to predict that not only could a drug be cystostatic, but also it could have a potential in terms of tumor reduction.

The next series has as its system HT-29. Put plainly: Inhibition of cells growth by colorimetric assay (SRB), HT-29. Format: cell-based. As to the method: as §1, §2, §3, §4, §5, §6, §7
[1] abbreviates: Homo sapiens, A549, 48 h, A-549, SRB, 48 hours exposure, read-out: GI50 A-549.
[2] abbreviates: Homo sapiens, A549, 48 h, read-out: LC50 A-549, A-549, SRB, 48 hours exposure.
Setting [3] is: Homo sapiens, HT-29, 48 h, HT-29, SRB, 48 hours exposure, read-out: GI50 HT-29.
Setting [4] is: Homo sapiens, HT-29, 48 h, read-out: LC50 HT-29, HT-29, SRB, 48 hours exposure.
Setting [5] is: Homo sapiens, A549, 48 h, read-out: A-549 GI50.
Setting [6] is: Homo sapiens, A549, 48 h, read-out: A-549 LC50, A-549, SRB, 48 hours exposure.
The mark [7] stands for this setting: Homo sapiens, HT-29, 48 h, read-out: HT-29 GI50.
Where [8] appears, read: Homo sapiens, HT-29, 48 h, read-out: HT-29 LC50, HT-29, SRB, 48 hours exposure.
Setting [9] is: Homo sapiens, A549, 48 h, A-549, SRB, 48 hours exposure, read-out: A-549 GI50.
Setting [10] is: Homo sapiens, HT-29, 48 h, HT-29, SRB, 48 hours exposure, read-out: HT-29 GI50.

Each structure is given as a SMILES string. Read-outs that look alike come from different tables or passages of the source.

The GI50 is the concentration at which growth is held to half of that of the control. Take `COc1cc2c(cc1OC)[C@@]1(CS[C@@H]3c4c(OC(C)=O)c(C)c5c(c4[C@H](COC1=O)N1C3[C@H]3c4c(cc(C)c(OC)c4O)C[C@@H]([C@@H]1C#N)N3C)OCO5)NCC2` (stereo partly drawn) [Compound 34]: in the series on A-549 (A-549, SRB, 48 hours exposure), the “TGI A-549” value was 2.84E-09. Also, the concentration for 50% growth inhibition (GI50) came to 0.000764 µM in the series on A-549 (setting [1]) and 0.000809 µM with HT-29 (setting [3]). The LC50 (concentration for 50% cell killing) turned out to be 0.00906 µM in the series on A-549 (setting [2]) and 12.7 µM in the series with HT-29 (setting [4]). Further, in the series with HT-29 (HT-29, SRB, 48 hours exposure), the “TGI HT-29” value is 1.29E-08.

`COc1cc2c(cc1OC)[C@@]1(CS[C@@H]3c4c(OC(C)=O)c(C)c5c(c4[C@H](COC1=O)N1C3[C@H]3c4c(cc(C)c(OC)c4OC)C[C@@H]([C@@H]1C#N)N3C)OCO5)NCC2` (stereo partly drawn) [Compound 35]: the “TGI A-549” value in the series with A-549 (A-549, SRB, 48 hours exposure) was found to be 7.22E-08. For the same molecule, the GI50 with A-549 (setting [1]) turned out to be 0.00568 µM; with HT-29 (setting [3]), 0.00541 µM. Moreover, the LC50 (concentration for 50% cell killing) with A-549 (setting [2]) amounted to 2.15 µM; in the series with HT-29 (setting [4]), 12.5 µM. Moreover, the “TGI HT-29” value with HT-29 (HT-29, SRB, 48 hours exposure) is 1.25E-08.

Turning to `COc1cc2c(cc1O)CCN[C@]21CS[C@@H]2c3c(OC(C)=O)c(C)c4c(c3[C@H](COC1=O)N1C2[C@H]2c3c(cc(C)c(OC)c3OC)C[C@@H]([C@@H]1C#N)N2C)OCO4` (stereo partly drawn) [Compound 36], the “TGI A-549” value in the series on A-549 (A-549, SRB, 48 hours exposure) amounted to 1.03E-07. Also, the results for the GI50 with A-549 (setting [1]) and in the series with HT-29 (setting [3]) were 0.00626 µM and 0.00567 µM, respectively. Further, the LC50 (concentration for 50% cell killing) was determined as 4.14 µM with A-549 (setting [2]) and 12.7 µM in the series with HT-29 (setting [4]). For the same molecule, in the series with HT-29 (HT-29, SRB, 48 hours exposure), the “TGI HT-29” value was 2.55E-08.

As for `C=COC(=O)Oc1c(C)c2c(c3c1[C@H]1SC[C@]4(NCCc5cc(OC(=O)OC(C)(C)C)c(OC)cc54)C(=O)OC[C@@H]3N3C1[C@H]1c4c(cc(C)c(OC)c4O)C[C@@H]([C@@H]3C#N)N1C)OCO2` (stereo partly drawn) [Compound 118], the “A-549 TGI” value in the series on A-549 (A-549, SRB, 48 hours exposure) is 8.90E-08. In addition, the results for the GI50 in the series on A-549 (setting [5]) and in the series on HT-29 (setting [7]) were 0.00334 µM and 0.00779 µM, respectively. Besides, the LC50 (concentration for 50% cell killing) was found to be 2.22 µM in the series with A-549 (setting [6]) and 11.1 µM with HT-29 (setting [8]). In the series with HT-29 (HT-29, SRB, 48 hours exposure), the “HT-29 TGI” value is 7.79E-09.

With `COc1cc2c(cc1OC(=O)OC(C)(C)C)CCNC21CSC2c3c(OC(=O)CCCCC4SCC5NC(=O)NC54)c(C)c4c(c3C(COC1=O)N1C(C#N)C3Cc5cc(C)c(OC)c(O)c5C(C21)N3C)OCO4` (stereo not drawn) [Compound 123], the “A-549 TGI” value in the series with A-549 (A-549, SRB, 48 hours exposure) stood at 2.09E-08. Further, the GI50 with A-549 (A-549, SRB, 48 hours exposure, read-out: A-549 GI50) came out at 0.00733 µM; in the series with HT-29 (HT-29, SRB, 48 hours exposure, read-out: HT-29 GI50), 0.00314 µM. Besides, the LC50 (50% lethal concentration) in the series on A-549 (A-549, SRB, 48 hours exposure, read-out: A-549 LC50) turned out to be 0.0733 µM. In addition, the “HT-29 TGI” value with HT-29 (HT-29, SRB, 48 hours exposure) was 3.14E-09. Also, in the series with HT-29 (HT-29, SRB, 48 hours exposure, read-out: HT-29 LC50), the CC50 came to 0.0314 µM.

`COc1cc2c(cc1OC(=O)OC(C)(C)C)CCN[C@]21CS[C@@H]2c3c(OC(=O)[C@H](C)NC(=O)OC(C)(C)C)c(C)c4c(c3[C@H](COC1=O)N1C2[C@H]2c3c(cc(C)c(OC)c3O)C[C@@H]([C@@H]1C#N)N2C)OCO4` (stereo partly drawn) [Compound 125]: the “A-549 TGI” value with A-549 (A-549, SRB, 48 hours exposure) is listed as 3.00E-09. For the same molecule, the results for the GI50 in the series with A-549 (setting [9]) and in the series with HT-29 (setting [10]) were 0.001 µM and 0.0002 µM, respectively. For the same molecule, the values for the LC50 (concentration for 50% cell killing) in the series with A-549 (setting [6]) and in the series with HT-29 (setting [8]) were 0.008 µM and 0.003 µM, respectively. In addition, in the series with HT-29 (HT-29, SRB, 48 hours exposure), the “HT-29 TGI” value was 2.00E-10.

On to `COc1cc2c(cc1O)CCN[C@]21CS[C@@H]2c3c(OC(=O)C(F)(F)C(F)(F)C(F)(F)F)c(C)c4c(c3[C@H](COC1=O)N1C2[C@H]2c3c(cc(C)c(OC)c3O)C[C@@H]([C@@H]1C#N)N2C)OCO4` (stereo partly drawn) [Compound 143], for which the “A-549 TGI” value in the series with A-549 (A-549, SRB, 48 hours exposure) is listed as 4.32E-08. The concentration for 50% growth inhibition (GI50) in the series on A-549 (setting [5]) came out at 0.0216 µM; in the series on HT-29 (setting [7]), 0.0108 µM. Further, the LC50 (concentration for 50% cell killing) with A-549 (setting [6]) was determined as 0.108 µM; in the series on HT-29 (setting [8]), 10.8 µM. In addition, in the series with HT-29 (HT-29, SRB, 48 hours exposure), the “HT-29 TGI” value amounted to 1.08E-08.

On to `COc1cc2c(cc1O)CCN[C@]21CS[C@@H]2c3c(OC(=O)CCCC[C@@H]4SCC5NC(=O)NC54)c(C)c4c(c3[C@H](COC1=O)N1C2[C@H]2c3c(cc(C)c(OC)c3O)C[C@@H]([C@@H]1C#N)N2C)OCO4` (stereo partly drawn) [Compound 147], for which the “A-549 TGI” value in the series with A-549 (A-549, SRB, 48 hours exposure) was found to be 6.84E-08. The values for the GI50 with A-549 (setting [9]) and in the series with HT-29 (setting [10]) were 0.0326 µM and 0.0197 µM, respectively. Moreover, the results for the LC50 (concentration for 50% cell killing) with A-549 (setting [6]) and with HT-29 (setting [8]) were 1.05 µM and 10.5 µM, respectively. The “HT-29 TGI” value with HT-29 (HT-29, SRB, 48 hours exposure) was 1.05E-07.

For the origin of these results see patent publication US7759345B2, “Antitumoral derivatives of ET-743” (priority 2001, dated 2010).
